Reference: patent EP0345251B1 (priority 1986, dated 1988)

What was measured:
[1] = system: Lewis lung carcinoma (3LL); assay: Lewis lung carcinoma (3LL): primary tumour and lung secondaries; assay type: in vivo, C₅₇Bl mice
Method: Antitumour effects. Male Swiss Schneider mice of 27g body weight were used for the sarcoma S180 experiments: female C₅₇Bl mice of 20g body weight were used for the B16 melanoma experiments; male BDF₁ mice of 30g body weight were used for the L1210 leukaemia experiments; and C₅₇Bl mice of 20g body weight were used for the Lewis lung experiments.
Lewis lung (3LL). This tumour was prepared for inoculation in a manner identical to that used for the S180 sarcoma.
This tumour metastasizes to the lungs when implanted into the flanks of mice. […]

[2] = Mitozantrone toxicity in mice, with and without Cronassial; assay type: in vivo, Male Swiss Schneider mice; settings: host SN
Method: (§1) Toxicity acute and chronic. Male Swiss Schneider mice with a body weight of 25-30g were used for these experiments. Mice were usually kept in groups of not more than 8 in standard cages. Food and water were supplied ad libidum. The animals were kept in experimental rooms under closely controlled conditions. They were weighed daily. For acute vincristine toxicity in chicks, 48 hour old SPF chicks were used.
Cronassial®. A solution of this substance, which is a mixture of four gangliosides, was prepared by the addition of a volume of sterile distilled water sufficient to give a concentration of 200 mg/kg in a volume of 0.2 ml. This dose was given to mice of approximately 20g.
(§2) Mitozantrone was made up in an appropriate manner. It was given in a volume of 0.2ml when the injections were given intraperitoneally but when given by another route, the volumes given were indicated in the appropriate Table.

leukaemia L1210 = assay: Antitumour activity against leukaemia L1210 (survival); assay type: in vivo, BDF₁ mice; set-up: MST: unit not given here; settings: for SURVIVAL (mean days) / SURVIVORS No. at 60 d: in combination CRON 200 mg/kg, CR same as MTZ; for DEATHS L1210 / DEATHS TOXICITY / COMMENTS / MST / T/C: L1210 s.c., i.p. days 1, 2, 3; for MST: median survival time; for T/C: treated/control
Method: Antitumour effects. Male Swiss Schneider mice of 27g body weight were used for the sarcoma S180 experiments: female C₅₇Bl mice of 20g body weight were used for the B16 melanoma experiments; […]; and C₅₇Bl mice of 20g body weight were used for the Lewis lung experiments.
L1210. Spleens were removed from animals 7 days after inoculation of L1210 cells and these spleens were finely minced with 1:100 isotonic saline. 0.1 ml of this spleen and leukaemia L1210 cell suspension was then injected subcutaneously into the flank of each BDF₁.

[3] = Mitozantrone toxicity in mice bearing S180, with and without Cronassial; assay type: in vivo, Male Swiss Schneider mice; settings: chronic, host SN (+S180), MTZ 5 mg/kg ip days 3.4.5
Method: as §1
Sarcoma S180. This tumour has been transplanted in the same strain of mouse for more than 10 years.
Transplantation was done by subcutaneous inoculation of 0.1 ml of a tumour mash made by finely mincing viable tumour tissue and passing it repeatedly through a 26 gauge needle into a sterile Petri dish. 0.1 ml of penicillin (20,000 m/ml) and streptomycin (20,000 m/ml) were added to the mash, as well as neomycin (5 mgs).
as §2

[4] = Blood counts (Coulter counter) after mitozantrone, with and without Cronassial; assay type: in vivo; settings: blood by cardiac puncture
[5] = chronic, first pair of Table 4: MTZ 5 ip days 1,2, in combination CRON 200 same time as MTZ
[6] = chronic, second series of Table 4: MTZ 5 ip days 1,2, in combination CRON 200 same time as MTZ
[7] = M, MTZ 4 mg/kg iv x 3, days 1.2.3, in combination CRON 200 mg/kg, mixed as one injection
[8] = L1210, host BDF1, MTZ 5 mg/kg ip days 0.1.2
[9] = L1210, host BDF1, MTZ 5 mg/kg ip days 1.2.3

## O=C1c2c(O)ccc(O)c2C(=O)c2c(NCCNCCO)ccc(NCCNCCO)c21 [MTZ, mitozantrone]
[1]; 3LL in flank, mitozantrone 3.0 mg/kg for 5 days, day 5 to 9 after implantation
  mice died by day 14: 7/8
[2]; [5]
  SURVIVAL (mean days): 9 days
  SURVIVORS No.at 30 d: 0/6
[2]; [6]
  SURVIVAL (mean days): 11 days
  SURVIVORS No.at 30 d: 0/6
[2]; [7]
  SURVIVAL (mean days): 7.8 days
  SURVIVORS d.30: 0/5
Leukaemia L1210; [8]
  SURVIVAL (mean days): 6.14 days
  SURVIVORS No. at 60 d: 1/8
Leukaemia L1210; [9]
  SURVIVAL (mean days): 17.1 days
  SURVIVORS No. at 60 d: 2/8
Leukaemia L1210; L1210, host BDF1, MTZ 5 mg/kg ip days 3.4.5, CMC-controls 0/8
  SURVIVORS No. at 60 d: 0/8
Leukaemia L1210; L1210, host BDF1, MTZ 5 mg/kg ip days 3.4.5, CMC-controls 8.7
  SURVIVAL (mean days): 25.2 days
Leukaemia L1210; L1210, host DBA, MTZ 5 mg/kg ip days 2.3.4, CMC-controls 0/6
  SURVIVORS No. at 60 d: 0/6
Leukaemia L1210; L1210, host DBA, MTZ 5 mg/kg ip days 2.3.4, CMC-controls 7.2
  SURVIVAL (mean days): 16.8 days
[3]
  SURVIVORS No.at 30 d: 0/8
[3]; in combination CRON 200 mg/kg, CR same time MTZ
  SURVIVAL (mean days): 8.8 days
[4]; Day 5., controls 7.9
  MEAN VALUES OF INDIVIDUAL ANIMALS RBC x 10¹²/l: 7.3 x 10¹²/l
[4]; Day 5, controls 9.3
  MEAN VALUES OF INDIVIDUAL ANIMALS WBC X 10⁹/l: 3.5 X 10⁹/l
[4]; Day 5, controls 632
  MEAN VALUES OF INDIVIDUAL ANIMALS PLATELETS x 10⁹/l: 631 x 10⁹/l
[4]; Day 7
  MEAN VALUES OF INDIVIDUAL ANIMALS PLATELETS x 10⁹/l: 845 x 10⁹/l
  MEAN VALUES OF INDIVIDUAL ANIMALS RBC x 10¹²/l: 7.0 x 10¹²/l
  MEAN VALUES OF INDIVIDUAL ANIMALS WBC X 10⁹/l: 2.2 X 10⁹/l
[4]; Day 8, controls 5.2
  MEAN VALUES OF INDIVIDUAL ANIMALS WBC X 10⁹/l: 3.2 X 10⁹/l
[4]; Day 8, controls 7.2
  MEAN VALUES OF INDIVIDUAL ANIMALS RBC x 10¹²/l: 7.1 x 10¹²/l
[4]; Day 8, controls 649
  MEAN VALUES OF INDIVIDUAL ANIMALS PLATELETS x 10⁹/l: 1058 x 10⁹/l

## COc1cccc2c1C(=O)c1c(O)c3c(c(O)c1C2=O)C[C@@](O)(C(=O)CO)C[C@@H]3O[C@H]1C[C@H](N)[C@H](O)[C@H](C)O1 [ADR, adriamycin]
[1]; C57Bl mice, 3LL s.c., 8/group, ADR 3 mg/kg i.p. days 6-10, in combination CRN 200 mg/kg
  COMMENTS (survival): All ADR alone animals dead by d17
Leukaemia L1210; Table 11: BDF ♀ 20g, 8/group, ADR 4.0 mg/kg, in combination CRON 200
  DEATHS L1210: 8
Leukaemia L1210; Table 11: BDF ♀ 20g, 8/group, ADR 6.0 mg/kg, in combination CRON 200
  DEATHS L1210: 8
Leukaemia L1210; Table 11: BDF ♀ 20g, 8/group, ADR 8.0 mg/kg, in combination CRON 200
  DEATHS L1210: 8
Leukaemia L1210; Table 12: BDF ♂ 35g (6/12 old), 8/group, ADR 6.0 mg/kg
  DEATHS L1210: 1
Leukaemia L1210; Table 12: BDF ♂ 35g (6/12 old), 8/group, ADR 6.0 mg/kg, in combination CRON 200
  DEATHS TOXICITY: 7
Leukaemia L1210; Table 12: BDF ♂ 35g (6/12 old), 8/group, ADR 8.0 mg/kg, in combination CRON 200
  DEATHS TOXICITY: 8
Leukaemia L1210; Table 12: BDF ♂ 35g (6/12 old), 8/group, ADR 10.0 mg/kg, in combination CRON (dose not given)
  DEATHS TOXICITY: 8
Leukaemia L1210; Table 12: BDF ♂ 35g (6/12 old), ADR 8.0 mg/kg
  COMMENTS: Toxic
Leukaemia L1210; Table 12: BDF ♂ 35g (6/12 old), ADR 10.0 mg/kg, bracket spans ADR and ADR/CRON lines
  COMMENTS: ) Toxic
Leukaemia L1210; Table 13: BDF ♀ 25g (2-3/12 old), 7/group, ADR 10.0 mg/kg, in combination CRON 200
  DEATHS TOXICITY: 7
Leukaemia L1210; Table 13: BDF ♀ 25g (2-3/12 old), 7/group, ADR 12.5 mg/kg, in combination CRON 200
  DEATHS TOXICITY: 7
Leukaemia L1210; Table 13: BDF ♀ 25g (2-3/12 old), 7/group, ADR 15.0 mg/kg, in combination CRON (dose not given)
  DEATHS TOXICITY: 7
Leukaemia L1210; Table 13: BDF ♀ 25g (2-3/12 old), ADR 12.5 mg/kg, bracket spans ADR and ADR/CRON lines
  COMMENTS: } Toxic
Leukaemia L1210; Table 13: BDF ♀ 25g (2-3/12 old), ADR 15.0 mg/kg, bracket spans ADR and ADR/CRON lines
  COMMENTS: } Toxic
Leukaemia L1210; Table 11: BDF ♀ 20g, ADR 4.0 mg/kg, in combination CRON 200, control 6.8
  MST: 10.8
Leukaemia L1210; Table 11: BDF ♀ 20g, ADR 6.0 mg/kg, in combination CRON 200, control 6.8
  MST: 9.7
Leukaemia L1210; Table 11: BDF ♀ 20g, ADR 8.0 mg/kg, in combination CRON 200, control 6.8
  MST: 11.8
Leukaemia L1210; Table 12: BDF ♂ 35g (6/12 old), ADR 6.0 mg/kg, in combination CRON 200, control 7.0
  MST: 9.38
Leukaemia L1210; Table 12: BDF ♂ 35g (6/12 old), ADR 8.0 mg/kg, in combination CRON 200, control 7.0
  MST: 5.8
Leukaemia L1210; Table 12: BDF ♂ 35g (6/12 old), ADR 10.0 mg/kg, in combination CRON (dose not given), control 7.0
  MST: 5.5
Leukaemia L1210; Table 13: BDF ♀ 25g (2-3/12 old), ADR 10.0 mg/kg, in combination CRON 200, control 10.6
  MST: 10.3
Leukaemia L1210; Table 13: BDF ♀ 25g (2-3/12 old), ADR 12.5 mg/kg, in combination CRON 200, control 10.6
  MST: 5.4
Leukaemia L1210; Table 13: BDF ♀ 25g (2-3/12 old), ADR 15.0 mg/kg, in combination CRON (dose not given), control 10.6
  MST: 5.1
Leukaemia L1210; Table 11: BDF ♀ 20g, ADR 4.0 mg/kg, in combination CRON 200
  T/C: 159
Leukaemia L1210; Table 11: BDF ♀ 20g, ADR 6.0 mg/kg, in combination CRON 200
  T/C: 135
Leukaemia L1210; Table 11: BDF ♀ 20g, ADR 8.0 mg/kg, in combination CRON 200
  T/C: 174
Leukaemia L1210; Table 12: BDF ♂ 35g (6/12 old), ADR 6.0 mg/kg, in combination CRON 200
  T/C: 134
Leukaemia L1210; Table 12: BDF ♂ 35g (6/12 old), ADR 8.0 mg/kg, in combination CRON 200
  T/C: 83
Leukaemia L1210; Table 12: BDF ♂ 35g (6/12 old), ADR 10.0 mg/kg, in combination CRON (dose not given)
  T/C: 79
Leukaemia L1210; Table 13: BDF ♀ 25g (2-3/12 old), ADR 10.0 mg/kg, in combination CRON 200
  T/C: 97
Leukaemia L1210; Table 13: BDF ♀ 25g (2-3/12 old), ADR 12.5 mg/kg, in combination CRON 200
  T/C: 51
Leukaemia L1210; Table 13: BDF ♀ 25g (2-3/12 old), ADR 15.0 mg/kg, in combination CRON (dose not given)
  T/C: 48
